Results published in ChEMBL document CHEMBL3112450, “Synthesis and in vitro antitumor evaluation of primary amine substituted quinazoline linked benzimidazole” (Bioorg Med Chem Lett, 2014).

What was measured:
Type in all cases: functional
[1] = tested on: MDA-MB-468; assay: Cytotoxicity against human MDA-MB-468 cells assessed as cell growth at 10^-5 M after 48 hrs by SRB assay; details: MDA-MB-468, 48 h, read-out: Activity
[2] = tested on: BT-549; assay: Cytotoxicity against human BT549 cells assessed as cell growth at 10^-5 M after 48 hrs by SRB assay; details: BT-549, 48 h, read-out: Activity
[3] = Cytotoxicity against human Hs578T cells assessed as cell growth at 10^-5 M after 48 hrs by SRB assay; details: Hs-578T, read-out: Activity
[4] = tested on: MDA-MB-231; assay: Cytotoxicity against human MDA-MB-231 cells assessed as cell growth at 10^-5 M after 48 hrs by SRB assay; details: MDA-MB-231, 48 h, read-out: Activity
[5] = tested on: MCF7; assay: Cytotoxicity against human MCF7 cells assessed as cell growth at 10^-5 M after 48 hrs by SRB assay; details: MCF7, 48 h, read-out: Activity
[6] = tested on: DU-145; assay: Cytotoxicity against human DU145 cells assessed as cell growth at 10^-5 M after 48 hrs by SRB assay; details: DU-145, 48 h, read-out: Activity
[7] = tested on: TK-10; assay: Cytotoxicity against human TK10 cells assessed as cell growth at 10^-5 M after 48 hrs by SRB assay; details: TK-10, 48 h, read-out: Activity
[8] = tested on: RXF 393; assay: Cytotoxicity against human RXF393 cells assessed as cell growth at 10^-5 M after 48 hrs by SRB assay; details: RXF 393, 48 h, read-out: Activity
[9] = tested on: SN12C; assay: Cytotoxicity against human SN12C cells assessed as cell growth at 10^-5 M after 48 hrs by SRB assay; details: read-out: Activity
[10] = tested on: ACHN; assay: Cytotoxicity against human ACHN cells assessed as cell growth at 10^-5 M after 48 hrs by SRB assay; details: read-out: Activity
[11] = tested on: A498; assay: Cytotoxicity against human A498 cells assessed as cell growth at 10^-5 M after 48 hrs by SRB assay; details: A498, 48 h, read-out: Activity
[12] = tested on: 786-0; assay: Cytotoxicity against human 786-0 cells assessed as cell growth at 10^-5 M after 48 hrs by SRB assay; details: 786-0, 48 h, read-out: Activity
[13] = Cytotoxicity against human NCI-ADR-RES cells assessed as cell growth at 10^-5 M after 48 hrs by SRB assay; details: read-out: Activity
[14] = tested on: OVCAR-3; assay: Cytotoxicity against human OVCAR3 cells assessed as cell growth at 10^-5 M after 48 hrs by SRB assay; details: OVCAR-3, 48 h, read-out: Activity
[15] = Cytotoxicity against human OVCAR4 cells assessed as cell growth at 10^-5 M after 48 hrs by SRB assay; details: OVCAR-4, 48 h, read-out: Activity
[16] = Cytotoxicity against human UACC257 cells assessed as cell growth at 10^-5 M after 48 hrs by SRB assay; details: UACC-257, 48 h, read-out: Activity
[17] = tested on: UACC-62; assay: Cytotoxicity against human UACC62 cells assessed as cell growth at 10^-5 M after 48 hrs by SRB assay; details: UACC-62, 48 h, read-out: Activity
[18] = tested on: SK-MEL-2; assay: Cytotoxicity against human SK-MEL-2 cells assessed as cell growth at 10^-5 M after 48 hrs by SRB assay; details: SK-MEL-2, 48 h, read-out: Activity
[19] = tested on: MDA-MB-435; assay: Cytotoxicity against human MDA-MB-435 cells assessed as cell growth at 10^-5 M after 48 hrs by SRB assay; details: MDA-MB-435, 48 h, read-out: Activity
[20] = tested on: Malme-3M; assay: Cytotoxicity against human MALME-3M cells assessed as cell growth at 10^-5 M after 48 hrs by SRB assay; details: read-out: Activity
[21] = tested on: LOX IMVI; assay: Cytotoxicity against human LOXIMVI cells assessed as cell growth at 10^-5 M after 48 hrs by SRB assay; details: read-out: Activity
[22] = tested on: SNB-19; assay: Cytotoxicity against human SNB19 cells assessed as cell growth at 10^-5 M after 48 hrs by SRB assay; details: SNB-19, 48 h, read-out: Activity
[23] = tested on: SF-295; assay: Cytotoxicity against human SF295 cells assessed as cell growth at 10^-5 M after 48 hrs by SRB assay; details: SF-295, 48 h, read-out: Activity
[24] = tested on: SF-268; assay: Cytotoxicity against human SF268 cells assessed as cell growth at 10^-5 M after 48 hrs by SRB assay; details: SF-268, 48 h, read-out: Activity
[25] = tested on: SW-620; assay: Cytotoxicity against human SW620 cells assessed as cell growth at 10^-5 M after 48 hrs by SRB assay; details: SW-620, 48 h, read-out: Activity
[26] = tested on: KM12; assay: Cytotoxicity against human KM12 cells assessed as cell growth at 10^-5 M after 48 hrs by SRB assay; details: KM12, 48 h, read-out: Activity
[27] = tested on: HT-29; assay: Cytotoxicity against human HT-29 cells assessed as cell growth at 10^-5 M after 48 hrs by SRB assay; details: HT-29, 48 h, read-out: Activity
[28] = tested on: HCC 2998; assay: Cytotoxicity against human HCC2998 cells assessed as cell growth at 10^-5 M after 48 hrs by SRB assay; details: HCC 2998, 48 h, read-out: Activity
[29] = tested on: HCT-116; assay: Cytotoxicity against human HCT116 cells assessed as cell growth at 10^-5 M after 48 hrs by SRB assay; details: HCT-116, 48 h, read-out: Activity
[30] = tested on: COLO 205; assay: Cytotoxicity against human COLO205 cells assessed as cell growth at 10^-5 M after 48 hrs by SRB assay; details: COLO 205, 48 h, read-out: Activity
[31] = tested on: NCI-H522; assay: Cytotoxicity against human NCI-H522 cells assessed as cell growth at 10^-5 M after 48 hrs by SRB assay; details: NCI-H522, 48 h, read-out: Activity
[32] = tested on: NCI-H322M; assay: Cytotoxicity against human NCI-H322M cells assessed as cell growth at 10^-5 M after 48 hrs by SRB assay; details: read-out: Activity
[33] = tested on: NCI-H23; assay: Cytotoxicity against human NCI-H23 cells assessed as cell growth at 10^-5 M after 48 hrs by SRB assay; details: NCI-H23, 48 h, read-out: Activity
[34] = tested on: NCI-H226; assay: Cytotoxicity against human NCI-H226 cells assessed as cell growth at 10^-5 M after 48 hrs by SRB assay; details: NCI-H226, 48 h, read-out: Activity
[35] = tested on: HOP-92; assay: Cytotoxicity against human HOP92 cells assessed as cell growth at 10^-5 M after 48 hrs by SRB assay; details: HOP-92, 48 h, read-out: Activity
[36] = tested on: HOP-62; assay: Cytotoxicity against human HOP62 cells assessed as cell growth at 10^-5 M after 48 hrs by SRB assay; details: HOP-62, 48 h, read-out: Activity
[37] = tested on: RPMI-8226; assay: Cytotoxicity against human RPMI8226 cells assessed as cell growth at 10^-5 M after 48 hrs by SRB assay; details: RPMI-8226, 48 h, read-out: Activity

C=CCn1c(C)nc2ccc(Nc3nc(NCCO)nc4ccccc34)cc21
growth at 10 µM [1]: 119%
growth at 10 µM [2]: 96.5%
growth at 10 µM [3]: 91.5%
growth at 10 µM [4]: 84.5%
growth at 10 µM [5]: 93.7%
growth at 10 µM [6]: 107%
growth at 10 µM [7]: 124%
growth at 10 µM [8]: 116%
growth at 10 µM [9]: 87.6%
growth at 10 µM [10]: 104%
growth at 10 µM [11]: 78.3%
growth at 10 µM [12]: 95.7%
growth at 10 µM [13]: 106%
growth at 10 µM [14]: 98.3%
growth at 10 µM [15]: 88.4%
growth at 10 µM [16]: 100%
growth at 10 µM [17]: 92.7%
growth at 10 µM [18]: 127%
growth at 10 µM [19]: 102%
growth at 10 µM [20]: 111%
growth at 10 µM [21]: 88.5%
growth at 10 µM [22]: 93.9%
growth at 10 µM [23]: 146%
growth at 10 µM [24]: 92.5%
growth at 10 µM [25]: 97.7%
growth at 10 µM [26]: 102%
growth at 10 µM [27]: 103%
growth at 10 µM [28]: 110%
growth at 10 µM [29]: 94.7%
growth at 10 µM [30]: 106%
growth at 10 µM [31]: 101%
growth at 10 µM [32]: 100%
growth at 10 µM [33]: 92.7%
growth at 10 µM [34]: 107%
growth at 10 µM [35]: 73.9%
growth at 10 µM [36]: 97.6%
growth at 10 µM [37]: 95.7%

C=CCn1c(C)nc2ccc(Nc3nc(Nc4ccc(F)cc4)nc4ccccc34)cc21
growth at 10 µM [1]: -90%
growth at 10 µM [2]: 21%
growth at 10 µM [3]: 50%
growth at 10 µM [4]: -8%
growth at 10 µM [5]: -63%
growth at 10 µM [6]: 47%
growth at 10 µM [7]: 40%
growth at 10 µM [8]: -92%
growth at 10 µM [9]: 11%
growth at 10 µM [10]: -54%
growth at 10 µM [11]: 42%
growth at 10 µM [12]: 43%
growth at 10 µM [13]: 20%
growth at 10 µM [14]: 30%
growth at 10 µM [15]: -26%
growth at 10 µM [16]: 66%
growth at 10 µM [17]: -69%
growth at 10 µM [18]: 4%
growth at 10 µM [19]: 24%
growth at 10 µM [20]: 63%
growth at 10 µM [21]: 24%
growth at 10 µM [22]: 48%
growth at 10 µM [23]: 31.4%
growth at 10 µM [24]: 47%
growth at 10 µM [25]: 1%
growth at 10 µM [26]: 22%
growth at 10 µM [27]: 5%
growth at 10 µM [28]: 47%
growth at 10 µM [29]: -11%
growth at 10 µM [30]: -91%
growth at 10 µM [31]: 8%
growth at 10 µM [32]: 41%
growth at 10 µM [33]: 28%
growth at 10 µM [34]: -62%
growth at 10 µM [35]: -8%
growth at 10 µM [36]: -70%
growth at 10 µM [37]: -43%

C=CCn1c(C)nc2ccc(Nc3nc(Sc4ccc(N)cc4)nc4ccccc34)cc21
growth at 10 µM [1]: 106%
growth at 10 µM [2]: 87.9%
growth at 10 µM [3]: 98.1%
growth at 10 µM [4]: 80.5%
growth at 10 µM [5]: 93.2%
growth at 10 µM [6]: 114%
growth at 10 µM [7]: 107%
growth at 10 µM [8]: 144%
growth at 10 µM [9]: 93.9%
growth at 10 µM [10]: 101%
growth at 10 µM [11]: 48.5%
growth at 10 µM [12]: 102%
growth at 10 µM [13]: 97.8%
growth at 10 µM [14]: 106%
growth at 10 µM [15]: 88.5%
growth at 10 µM [16]: 110%
growth at 10 µM [17]: 83.1%
growth at 10 µM [18]: 109%
growth at 10 µM [19]: 96.9%
growth at 10 µM [20]: 123%
growth at 10 µM [21]: 97%
growth at 10 µM [22]: 93.2%
growth at 10 µM [23]: 77.1%
growth at 10 µM [24]: 109%
growth at 10 µM [25]: 108%
growth at 10 µM [26]: 96.8%
growth at 10 µM [27]: 97.3%
growth at 10 µM [28]: 103%
growth at 10 µM [29]: 93.2%
growth at 10 µM [30]: 121%
growth at 10 µM [31]: 89.5%
growth at 10 µM [32]: 102%
growth at 10 µM [33]: 101%
growth at 10 µM [34]: 109%
growth at 10 µM [35]: 61.1%
growth at 10 µM [36]: 104%
growth at 10 µM [37]: 59.8%
